Values quoted from earlier work, collected in US10064856B2, “Pharmaceutical compositions” (LOCL PHARMA, INC., priority 2008, dated 2018).

Details: more than about 0.6 to 2.0 gm, typically more than about 0.6 gm

O=S(=O)([O-])[O-].[Zn+2] [Zinc sulfate, zinc sulfate]
amount ingested that can induce emesis: more than 0.6 gm
